Drawing on PMC7539012, “Hyperphosphorylated tau aggregation and cytotoxicity modulators screen identified prescription drugs linked to Alzheimer's disease and cognitive functions” (Scientific Reports, 2020), this text covers ThS net change for 69 compounds.

Counter-ions that a name gives are not always drawn.

The test system of one assay is T1, 1N4R p-tau.
T1 construct: made in house; host or cells: E. coli (PIMAX system)
The assay is described as follows: p-tau aggregation modulator screen of 1280-compound library (ThS fluorescence net change over 16 h).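 Further: 30 µM compound with 6 µM p-tau over 16 h.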 The assay is classed as biochemical.
Settings: not given
The compound `CN1[C@@H]2C[C@@H](OC(=O)[C@H](CO)c3ccccc3)C[C@H]1[C@@H]1O[C@@H]12.Cl` [Scopolamine hydrochloride] yielded a ThS net change of 389.

`CC1(C)[C@H](C(=O)O)N2C(=O)C[C@H]2S1(=O)=O` [Sulbactam] gave a ThS net change of 463.

`Cl.Oc1noc2c1CCNC2` [THIP Hydrochloride]: the ThS net change was determined as 448.

The same assay, now with this note: 1280-compound library screen; ThS fluorescence net change over 16 h.
In turn, `COc1ccc(C2CNC(=O)C2)cc1OC1CCCC1` (stereo not drawn) [Rolipram] gave a ThS net change of 406.

In turn, `CCCN(CCC)CCc1cccc2c1CC(=O)N2` [Ropinirole HCl] yielded a ThS net change of 388.

Take `CC(C)Cc1ccc([C@H](C)C(=O)O)cc1` [S-(+)-ibuprofen]: the ThS net change amounted to 406.

Compound `NCCc1c[nH]c2ccc(O)cc12` [Serotonin hydrochloride] came in with a ThS net change of 412.

As to `CC(C)NCC(O)c1ccc(NS(C)(=O)=O)cc1` (stereo not drawn) [Sotalol hydrochloride], the ThS net change came to 404.

On to `C[C@@H]1CN(c2c(F)c(N)c3c(=O)c(C(=O)O)cn(C4CC4)c3c2F)C[C@H](C)N1` [Sparfloxacin], for which the ThS net change is on record as 403.

With `[H]/N=C(/N)N[C@H]1[C@H](O)[C@@H](O)[C@H](O[C@@H]2O[C@@H](C)[C@](O)(C=O)[C@H]2O[C@@H]2O[C@@H](CO)[C@H](O)[C@@H](O)[C@@H]2NC)[C@@H](N/C(N)=N\[H])[C@@H]1O` [Streptomycin sulfate], the ThS net change is 397.

In turn, `O=C(O)CCC(=O)Nc1ccc(S(=O)(=O)Nc2nccs2)cc1` [Succinylsulfathiazole] registered a ThS net change of 382.

For the compound `Nc1ccc(S(=O)(=O)Nc2ncccn2)cc1` [Sulfadiazine], the ThS net change came out at 379.

Consider `COc1cc(NS(=O)(=O)c2ccc(N)cc2)nc(OC)n1` [Sulfadimethoxine], for which the ThS net change turned out to be 380.

Take `COc1ccc(NS(=O)(=O)c2ccc(N)cc2)nn1` [Sulfamethoxypyridazine]: the ThS net change was found to be 392.

Take `Nc1ccc(S(=O)(=O)Nc2ccccn2)cc1` [Sulfapyridine]: the ThS net change was found to be 394.

Regarding `Nc1ccc(S(=O)(=O)Nc2nccs2)cc1` [Sulfathiazole], the ThS net change is 389.

In the case of `Cc1noc(NS(=O)(=O)c2ccc(N)cc2)c1C` [Sulfisoxazole], the ThS net change was 404.

`COc1cc([S+](C)[O-])ccc1-c1nc2ncccc2[nH]1` (stereo not drawn) [Sulmazole] displayed a ThS net change of 406.

In turn, `CNS(=O)(=O)Cc1ccc2[nH]cc(CCN(C)C)c2c1` [Sumatriptan succinate] yielded a ThS net change of 393.

In the case of `CC(C(=O)O)c1ccc(C(=O)c2cccs2)cc1` (stereo not drawn) [Suprofen], the ThS net change is on record as 391.

On to `CCCCC1(COC(=O)CCC(=O)O)C(=O)N(c2ccccc2)N(c2ccccc2)C1=O` [Suxibuzone], for which the ThS net change was 392.

`Nc1c2c(nc3ccccc13)CCCC2` [Tacrine hydrochloride]: the ThS net change is 405.

Still in this assay, the particulars now being: 1280-compound library screen; […].
For the compound `CC(=O)OCC(=O)NCCCOc1cccc(CN2CCCCC2)c1` [Roxatidine Acetate HCl], the ThS net change came to 411.

`C#CCN(C)[C@H](C)Cc1ccccc1` [Selegiline hydrochloride] had a ThS net change of 388.

For `CN[C@@H]1[C@@H](O)[C@@H](O[C@@H]2[C@@H](O)[C@H](O[C@H]3OC(CN)=CC[C@H]3N)[C@@H](N)C[C@H]2N)OC[C@]1(C)O` [Sisomicin sulfate], the ThS net change is reported as 381.

On to `C[C@]12Cc3c[nH]nc3C[C@@H]1CC[C@@H]1[C@@H]2CC[C@@]2(C)[C@H]1CC[C@]2(C)O` [Stanozolol], for which the ThS net change turned out to be 403.

As for `CC(=O)[N-]S(=O)(=O)c1ccc(N)cc1.O.[Na+]` [Sulfacetamide sodic hydrate], the ThS net change was determined as 393.

For the compound `Nc1ccc(S(=O)(=O)[N-]c2cnc3ccccc3n2)cc1.[Na+]` [Sulfaquinoxaline sodium salt], the ThS net change worked out at 398.

The same assay, now with this note: library screen, ThS fluorescence net change over 16 h with p-tau.
Consider `Cc1ncc([N+](=O)[O-])n1CC(C)O` (stereo not drawn) [Secnidazole], for which the ThS net change is listed as 327.

Turning to `O=C(CCCN1CCC2(CC1)C(=O)NCN2c1ccccc1)c1ccc(F)cc1` [Spiperone], the ThS net change came out at 313.

`O=C(O)c1cc(/N=N/c2ccc(S(=O)(=O)Nc3ccccn3)cc2)ccc1O` [Sulfasalazine] displayed a ThS net change of 282.

The compound `CC1=C(CC(=O)O)c2cc(F)ccc2/C1=C\c1ccc([S+](C)[O-])cc1` (stereo not drawn) [Sulindac] gave a ThS net change of 288.

Staying with this assay, now noted: p-tau aggregation modulator screen of 1280-compound library; ThS fluorescence net change.
The compound `CC[C@H]1OC(=O)[C@H](C)[C@@H](O[C@H]2C[C@@](C)(OC)[C@@H](O)[C@H](C)O2)[C@H](C)[C@@H](O[C@@H]2O[C@H](C)C[C@H](N(C)C)[C@H]2O)[C@](C)(O)C[C@@H](C)/C(=N\OCOCCOC)[C@H](C)[C@@H](O)[C@]1(C)O` [Roxithromycin] registered a ThS net change of 366.

In turn, `CCc1cc(Cl)c(OC)c(C(=O)NC[C@@H]2CCCN2CC)c1O.Cl` [S(-)Eticlopride hydrochloride] returned a ThS net change of 329.

In turn, `CC(C)(C)NCC(O)c1ccc(O)c(CO)c1` (stereo not drawn) [Salbutamol] had a ThS net change of 367.

Compound `OCc1cc(C(O)CNCCCCCCOCCCCc2ccccc2)ccc1O` (stereo not drawn) [Salmeterol] came in with a ThS net change of 358.

The compound `O=C(O)c1cn(-c2ccc(F)cc2)c2cc(N3CCNCC3)c(F)cc2c1=O` [Sarafloxacin] yielded a ThS net change of 332.

In the case of `CN[C@@H]1[C@H](O)[C@H](NC)[C@H]2O[C@@]3(O)C(=O)C[C@@H](C)O[C@H]3O[C@@H]2[C@H]1O.Cl.Cl` [Spectinomycin dihydrochloride], the ThS net change stood at 361.

`CC(=O)S[C@@H]1CC2=CC(=O)CC[C@]2(C)[C@H]2CC[C@@]3(C)[C@@H](CC[C@@]34CCC(=O)O4)[C@H]12` [Spironolactone] yielded a ThS net change of 372.

`Nc1ccc(S(=O)(=O)NC(=O)c2ccccc2)cc1` [Sulfabenzamide] yielded a ThS net change of 347.

`[H]/N=C(/N)NS(=O)(=O)c1ccc(N)cc1` [Sulfaguanidine] returned a ThS net change of 364.

The compound `COc1cnc(NS(=O)(=O)c2ccc(N)cc2)nc1` [Sulfameter] gave a ThS net change of 357.

With `Cc1nnc(NS(=O)(=O)c2ccc(N)cc2)s1` [Sulfamethizole], the ThS net change stood at 365.

In turn, `Cc1cc(NS(=O)(=O)c2ccc(N)cc2)no1` [Sulfamethoxazole] showed a ThS net change of 376.

The compound `Nc1ccc(S(N)(=O)=O)cc1` [Sulfanilamide] had a ThS net change of 355.

The compound `Nc1ccc(S(=O)(=O)Nc2ccnn2-c2ccccc2)cc1` [Sulfaphenazole] came in with a ThS net change of 334.

`O=C1C(CC[S+]([O-])c2ccccc2)C(=O)N(c2ccccc2)N1c1ccccc1` (stereo not drawn) [Sulfinpyrazone] registered a ThS net change of 342.

For `CCCCCCCCNC(C)C(O)c1ccc(SC(C)C)cc1` (stereo not drawn) [Suloctidil], the ThS net change was determined as 370.

In the case of `CCN1CCCC1CNC(=O)c1cc(S(N)(=O)=O)ccc1OC` (stereo not drawn) [Sulpiride], the ThS net change turned out to be 373.

The same assay, now with this note: p-tau aggregation modulator screen of 1280-compound library; […].
The compound `Br.C[N+]1([O-])[C@@H]2C[C@@H](OC(=O)[C@H](CO)c3ccccc3)C[C@H]1[C@@H]1O[C@@H]12` (stereo partly drawn) [Scopolamin-N-oxide hydrobromide] had a ThS net change of 345.

Take `Clc1ccc(C(Cn2ccnc2)OCc2csc3c(Cl)cccc23)c(Cl)c1` (stereo not drawn) [Sertaconazole nitrate]: the ThS net change came to 344.

`CC(C)CC(N(C)C)C1(c2ccc(Cl)cc2)CCC1.Cl` (stereo not drawn) [Sibutramine HCl]: the ThS net change is 347.

As to `Clc1ccc(CSC(Cn2ccnc2)c2ccc(Cl)cc2Cl)cc1` (stereo not drawn) [Sulconazole nitrate], the ThS net change is recorded as 336.

On to `Cc1cc(C)nc([N-]S(=O)(=O)c2ccc(N)cc2)n1.[Na+]` [Sulfamethazine sodium salt], for which the ThS net change was determined as 366.

The assay is the same for the next values; noted with them: p-tau aggregation modulator screen of the compound library, ThS fluorescence net change.
`Cn1c([N+](=O)[O-])cnc1COC(N)=O` [Ronidazole] registered a ThS net change of 445.

For `CN(CCOc1ccc(CC2SC(=O)NC2=O)cc1)c1ccccn1.Cl` (stereo not drawn) [Rosiglitazone Hydrochloride], the ThS net change was determined as 476.

The compound `CN1CCN(c2c(F)cc3c(=O)c(C(=O)O)cn4c3c2SCC4)CC1` [Rufloxacin] showed a ThS net change of 476.

Compound `CC(C)(C)NC(=O)[C@@H]1C[C@@H]2CCCC[C@@H]2CN1C[C@@H](O)[C@H](Cc1ccccc1)NC(=O)[C@H](CC(N)=O)NC(=O)c1ccc2ccccc2n1` [Saquinavir mesylate] displayed a ThS net change of 568.

On to `O=C1NCCN1CCN1CCC(c2cn(-c3ccc(F)cc3)c3ccc(Cl)cc23)CC1` [Sertindole], for which the ThS net change is 434.

On to `CN[C@H]1CC[C@@H](c2ccc(Cl)c(Cl)c2)c2ccccc21` [Sertraline], for which the ThS net change stood at 428.

In turn, `CCCc1nn(C)c2c(=O)[nH]c(-c3cc(S(=O)(=O)N4CCN(C)CC4)ccc3OCC)nc12` [Sildenafil] came in with a ThS net change of 461.

As to `C[C@H](Cc1cc2c(c(C(N)=O)c1)N(CCCO)CC2)NCCOc1ccccc1OCC(F)(F)F` [Silodosin], the ThS net change turned out to be 478.

Compound `CCC(C)(C)C(=O)O[C@H]1C[C@@H](C)C=C2C=C[C@H](C)[C@H](CC[C@@H]3C[C@@H](O)CC(=O)O3)[C@H]21` [Simvastatin] came in with a ThS net change of 458.

Compound `CC(=O)N[C@@H](CC(=O)N[C@@H](CCC(=O)O)C(=O)O)C(=O)O` [Spaglumic acid] returned a ThS net change of 425.

The compound `Cc1cn([C@H]2C=C[C@@H](CO)O2)c(=O)[nH]c1=O` [Stavudine] gave a ThS net change of 428.

With `Nc1ccc(S(=O)(=O)Nc2ccc(Cl)nn2)cc1` [Sulfachloropyridazine], the ThS net change was 413.

`COc1ncnc(NS(=O)(=O)c2ccc(N)cc2)c1OC` [Sulfadoxine] registered a ThS net change of 513.

`Cc1ccnc(NS(=O)(=O)c2ccc(N)cc2)n1` [Sulfamerazine]: the ThS net change was determined as 421.

Consider `COc1cc(NS(=O)(=O)c2ccc(N)cc2)ncn1` [Sulfamonomethoxine], for which the ThS net change was 419.
